From PubChem BioAssay (NCI)
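Cultured in 96-well plates, cells were exposed to test compound for 48 hours across five concentrations. The concentration for full growth arrest is given as TGI.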

Assays:
Assay in all cases: NCI-60 cell line screen, 48 h
A498 renal = system: A498 renal
A549 NSCLC = system: A549 NSCLC
ACHN renal = system: ACHN renal
CAKI-1 renal = system: CAKI-1 renal
CCRF-CEM leukemia = system: CCRF-CEM leukemia
EKVX NSCLC = system: EKVX NSCLC
HCC-2998 colon = system: HCC-2998 colon
HL-60(TB) leukemia = system: HL-60(TB) leukemia
HT29 colon = system: HT29 colon
K-562 leukemia = system: K-562 leukemia
KM12 colon = system: KM12 colon
KM20L2 colon = system: KM20L2 colon
LOX IMVI melanoma = system: LOX IMVI melanoma
LXFL 529 NSCLC = system: LXFL 529 NSCLC
MALME-3M melanoma = system: MALME-3M melanoma
MOLT-4 leukemia = system: MOLT-4 leukemia
NCI-H226 lung = system: NCI-H226 lung
NCI-H23 lung = system: NCI-H23 lung
NCI-H460 lung = system: NCI-H460 lung
NCI-H522 lung = system: NCI-H522 lung
OVCAR-4 ovarian = system: OVCAR-4 ovarian
OVCAR-5 ovarian = system: OVCAR-5 ovarian
RPMI-8226 leukemia = system: RPMI-8226 leukemia
SF-268 CNS = system: SF-268 CNS
SF-295 CNS = system: SF-295 CNS
SF-539 CNS = system: SF-539 CNS
SK-MEL-2 melanoma = system: SK-MEL-2 melanoma
SK-MEL-28 melanoma = system: SK-MEL-28 melanoma
SN12C renal = system: SN12C renal
SNB-19 CNS = system: SNB-19 CNS
SNB-78 CNS = system: SNB-78 CNS
SR leukemia = system: SR leukemia
SW-620 colon = system: SW-620 colon
U251 CNS = system: U251 CNS
UACC-257 melanoma = system: UACC-257 melanoma
UO-31 renal = system: UO-31 renal
786-0 renal = system: 786-0 renal
COLO 205 colon = system: COLO 205 colon
DLD-1 colon = system: DLD-1 colon
DMS 114 small cell lung = system: DMS 114 small cell lung
DMS 273 small cell lung = system: DMS 273 small cell lung
HCT-116 colon = system: HCT-116 colon
HCT-15 colon = system: HCT-15 colon
HOP-62 NSCLC = system: HOP-62 NSCLC
HOP-92 NSCLC = system: HOP-92 NSCLC
IGROV1 ovarian = system: IGROV1 ovarian
M14 melanoma = system: M14 melanoma
M19-MEL melanoma = system: M19-MEL melanoma
OVCAR-3 ovarian = system: OVCAR-3 ovarian
OVCAR-8 ovarian = system: OVCAR-8 ovarian
RXF 393 renal = system: RXF 393 renal
SK-OV-3 ovarian = system: SK-OV-3 ovarian
TK-10 renal = system: TK-10 renal
UACC-62 melanoma = system: UACC-62 melanoma

O=C(Nc1ccc([N+](=O)[O-])cc1Cl)c1cccc([N+](=O)[O-])c1O
TGI (A498 renal): 3.66 µM
TGI (A549 NSCLC): 7.31 µM
TGI (ACHN renal): 48.1 µM
TGI (CAKI-1 renal): 5.21 µM
TGI (CCRF-CEM leukemia): > 100 µM
TGI (EKVX NSCLC): 6.54 µM
TGI (HCC-2998 colon): 20.9 µM
TGI (HL-60(TB) leukemia): 5.43 µM
TGI (HT29 colon): 79.7 µM
TGI (K-562 leukemia): 12.5 µM
TGI (KM12 colon): 15.3 µM
TGI (KM20L2 colon): 10.2 µM
TGI (LOX IMVI melanoma): 14.5 µM
TGI (LXFL 529 NSCLC): 13.6 µM
TGI (MALME-3M melanoma): 4.73 µM
TGI (MOLT-4 leukemia): 28.3 µM
TGI (NCI-H226 lung): 9.31 µM
TGI (NCI-H23 lung): 4.01 µM
TGI (NCI-H460 lung): 13.3 µM
TGI (NCI-H522 lung): 4.32 µM
TGI (OVCAR-4 ovarian): 45.3 µM
TGI (OVCAR-5 ovarian): > 100 µM
TGI (RPMI-8226 leukemia): 5.78 µM
TGI (SF-268 CNS): 27.3 µM
TGI (SF-295 CNS): 6.26 µM
TGI (SF-539 CNS): 10.9 µM
TGI (SK-MEL-2 melanoma): 6.1 µM
TGI (SK-MEL-28 melanoma): 19.4 µM
TGI (SN12C renal): 8.09 µM
TGI (SNB-19 CNS): > 100 µM
TGI (SNB-78 CNS): 9.75 µM
TGI (SR leukemia): 18.9 µM
TGI (SW-620 colon): > 100 µM
TGI (U251 CNS): > 100 µM
TGI (UACC-257 melanoma): 6.95 µM
TGI (UO-31 renal): 5.58 µM

O=C1c2ccc(O)c(O)c2C(=O)c2c(O)ccc(O)c21
TGI (786-0 renal): > 100 µM
TGI (A498 renal): 53.8 µM
TGI (A549 NSCLC): 50.3 µM
TGI (ACHN renal): 52.5 µM
TGI (CCRF-CEM leukemia): 56.7 µM
TGI (COLO 205 colon): 48.5 µM
TGI (DLD-1 colon): > 100 µM
TGI (DMS 114 small cell lung): 32.6 µM
TGI (DMS 273 small cell lung): 61.7 µM
TGI (EKVX NSCLC): 67.4 µM
TGI (HCC-2998 colon): 47.9 µM
TGI (HCT-116 colon): 45.2 µM
TGI (HCT-15 colon): 89.1 µM
TGI (HOP-62 NSCLC): 65.4 µM
TGI (HOP-92 NSCLC): 57.7 µM
TGI (HT29 colon): > 100 µM
TGI (IGROV1 ovarian): > 100 µM
TGI (K-562 leukemia): 70.9 µM
TGI (KM12 colon): 98.9 µM
TGI (KM20L2 colon): 70.8 µM
TGI (LOX IMVI melanoma): 44.3 µM
TGI (LXFL 529 NSCLC): > 100 µM
TGI (M14 melanoma): 54 µM
TGI (M19-MEL melanoma): > 100 µM
TGI (MOLT-4 leukemia): 62.2 µM
TGI (NCI-H226 lung): 50.5 µM
TGI (NCI-H23 lung): 93.8 µM
TGI (NCI-H460 lung): 49.8 µM
TGI (NCI-H522 lung): 3.03 µM
TGI (OVCAR-3 ovarian): 49.7 µM
TGI (OVCAR-4 ovarian): 6.53 µM
TGI (OVCAR-5 ovarian): 76.5 µM
TGI (OVCAR-8 ovarian): 80.8 µM
TGI (RPMI-8226 leukemia): > 100 µM
TGI (RXF 393 renal): 55.2 µM
TGI (SF-268 CNS): > 100 µM
TGI (SF-295 CNS): 78.5 µM
TGI (SF-539 CNS): 49.2 µM
TGI (SK-MEL-2 melanoma): 66.5 µM
TGI (SK-MEL-28 melanoma): > 100 µM
TGI (SK-OV-3 ovarian): 72.8 µM
TGI (SN12C renal): 56.7 µM
TGI (SNB-19 CNS): 85.3 µM
TGI (SNB-78 CNS): > 100 µM
TGI (SR leukemia): 93.7 µM
TGI (SW-620 colon): > 100 µM
TGI (TK-10 renal): > 100 µM
TGI (U251 CNS): > 100 µM
TGI (UACC-257 melanoma): 49.3 µM
TGI (UACC-62 melanoma): 41.6 µM
TGI (UO-31 renal): 42.8 µM
